Values of other authors, collected in paper PMC10216446 (Biomolecules, 2023).
pIC50: −log10 of the molar value.

Key:
[1] = stated as a known limitation of TNP, no reference given
[2] = system: human cytochrome P450s; design: method as in PMID 27689003
[3] = system: IP6K; conditions: reported values; read-out: reported IC50 values for TNP

For `O=[N+]([O-])c1ccc(CNc2nc(NCc3cccc(C(F)(F)F)c3)nc3nc[nH]c23)cc1` [TNP, N2-(m-trifluorobenzyl), N6-(p-nitrobenzyl)purine], the aqueous solubility [1] is given as “poor”, the “inhibition of human cytochrome P450s” value [2] is given as “potent inhibitor of human cytochrome P450s” and the pIC50 [3] is given as 6.00 to 6.60.
